Experimental data taken from patent US9328138B2 (priority 2011, dated 2016).
Like-named read-outs stand apart in the source and are kept apart here.

What was measured:
[1] = amide bond, 18-membered ring
[2] = molecular target: T1, HCV genotype 1b (BK) NS3 modified enzyme with a R155K mutation (Hepatitis C virus genotype 1b, UniProt P26663, R1181K); experiment: HCV NS3 protease time-resolved fluorescence (TRF) assay, genotype 1b R155K; type: biochemical; details: Ki 1b R155K
T1 construct: HCV genotype 1b (BK) NS3 modified enzyme
Method in brief: (§1)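 IC50 values derive from 4-parameter fitting of TRF signal after a 6 h room-temperature cleavage of 25 nM peptide substrate by NS3/NS4A that had been pre-incubated 10 min with compound.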

[3] = molecular target: HCV NS3 protease genotype 3a (3A-1) (Hepatitis C virus genotype 3a, UniProt Q81258); experiment: HCV NS3 protease time-resolved fluorescence (TRF) assay, genotype 3a; type: biochemical; details: Ki 3a
Method in brief: as §1

[4] = first of two values printed in the cell (not explained)
[5] = second of two values printed in the cell (not explained)
[6] = genotype 1b (BK) NS3 R155K, single value

Work on COC(=O)[C@@H]1C[C@@H]2CN1C(=O)[C@H](C1(C)CCCCC1)NC(=O)O[C@@H]1C[C@H]1CCCC#Cc1c(nc3ccccc3c1OCc1ccccc1)O2 yielded a ring closure, yield of all isomers (from COC(=O)[C@@H]1C[C@@H](Oc2nc3ccccc3c(OCc3ccccc3)c2C#CCCC[C@@H]2C[C@H]2OC(=O)N[C@H](C(=O)O)C2(C)CCCCC2)CN1, amide bond, HATU, DMF, 50.0 mM, 25.0 °C, 3.0 h) of 58.8% and a ring closure, isolated yield ([1]; from COC(=O)[C@@H]1C[C@@H](Oc2nc3ccccc3c(OCc3ccccc3)c2C#CCCC[C@@H]2C[C@H]2OC(=O)N[C@H](C(=O)O)C2(C)CCCCC2)CN1, HATU/DIEA, DMF, 50.0 mM) of 58.8%.

In the case of CCOC(=O)[C@@]12C[C@H]1/C=C\CCCCC[C@@H]1NC(=O)O[C@@H]3C[C@H]3CCC/C=C/c3c(nc4ccccc4c3OCCN3CCCCC3)O[C@@H]3C[C@@H](C(=O)N2)N(C3)C1=O, the ring closure, yield of all isomers (from CCOC(=O)[C@@]12C[C@H]1/C=C\CCCCC[C@H](NC(=O)O[C@@H]1C[C@H]1CCC/C=C/B1OC(C)(C)C(C)(C)O1)C(=O)N1C[C@H](Oc3nc4ccccc4c(OCCN4CCCCC4)c3Br)C[C@H]1C(=O)N2, cc_pd bond, Pd(OAc)2/cataCXium A, Cs2CO3, dioxane, 36.6 mM, 100.0 °C, 1.0 h) is reported as 64.1%.

Molecule CCOC(=O)[C@@]12C[C@H]1C=CCCCCC[C@H](NC(=O)OC(C)(C)C)C(=O)N1C[C@@H](OS(=O)(=O)c3ccc(Br)cc3)C[C@H]1C(=O)N2C(=O)OC(C)(C)C has a ring closure, yield of all isomers (from C=CCCCCC[C@H](NC(=O)OC(C)(C)C)C(=O)N1C[C@@H](OS(=O)(=O)c2ccc(Br)cc2)C[C@H]1C(=O)N(C(=O)OC(C)(C)C)[C@]1(C(=O)OCC)C[C@H]1C=C, rcm bond, Zhan catalyst 1B, 1,2-dichloroethane, 10.0 mM, 75.0 °C, 2.0 h) of 84.8%.

CCOc1c2c(nc3ccccc13)O[C@@H]1C[C@@H](C(=O)OC)N(C1)C(=O)[C@H](C1CCCC1)NC(=O)O[C@@H]1CCC[C@H]1CCC=CC2 gave a ring closure, yield of all isomers (from C=CCC[C@@H]1CCC[C@H]1OC(=O)N[C@H](C(=O)N1C[C@H](Oc2nc3ccccc3c(OCC)c2CC=C)C[C@H]1C(=O)OC)C1CCCC1, rcm bond, Zhan catalyst 1B, 1,2-dichloroethane, 6.79 mM, 25.0 °C, 4.0 h) of 79.2%.

Work on COC(=O)[C@@H]1C[C@@H]2CN1C(=O)[C@H](C(C)(C)C)NC(=O)O[C@H]1C[C@@H]1CCCCCc1c(nc3ccncc3c1OC1CCN(C)CC1)O2 yielded a ring closure, yield of all isomers (from COC(=O)[C@@H]1C[C@@H](Oc2nc3ccncc3c(OC3CCN(C)CC3)c2CCCCC[C@@H]2C[C@H]2OC(=O)N[C@H](C(=O)OC(C)(C)C)C(C)(C)C)CN1C(=O)OC(C)(C)C, amide bond, HATU, DMF, 51.5 mM, 25.0 °C, 1.5 h, 2 steps) of 44.7% and a ring closure, isolated yield ([1]; HATU, 2 steps) of 44.7%.

For COC(=O)[C@@H]1C[C@@H]2CN1C(=O)[C@H](C1Cc3ccccc3C1)NC(=O)O[C@@H]1C[C@H]1CCCC#Cc1c(nc3ccccc3c1OCc1ccccc1)O2, the ring closure, yield of all isomers (from COC(=O)[C@@H]1C[C@@H](Oc2nc3ccccc3c(OCc3ccccc3)c2C#CCCC[C@@H]2C[C@H]2OC(=O)N[C@H](C(=O)O)C2Cc3ccccc3C2)CN1, amide bond, HATU, DMF, 50.0 mM, 25.0 °C, 2.0 h) was 80% and the ring closure, isolated yield ([1]; from COC(=O)[C@@H]1C[C@@H](Oc2nc3ccccc3c(OCc3ccccc3)c2C#CCCC[C@@H]2C[C@H]2OC(=O)N[C@H](C(=O)O)C2Cc3ccccc3C2)CN1, HATU/DIEA, DMF, 50.0 mM) was 80%.

Work on C=C[C@@H]1CC1(NC(=O)[C@@H]1C[C@@H]2CN1C(=O)[C@H](C1CCOCC1)NC(=O)O[C@@H]1C[C@H]1CCCCCc1c(nc3ccccc3c1OC1CCN(C)CC1)O2)C(=O)NS(=O)(=O)C1(C)CC1 (stereo partly drawn) [Example 252, potassium {[(1R,2S)-2-ethenyl-1-({[(1aR,5S,8S,10R,22aR)-17-[(1-methylpiperidin-4-yl)oxy]-3,6-dioxo-5-(tetrahydro-2H-pyran-4-yl)-1,1a,3,4,5,6,9,10,18,19,20,21,22,22a-tetradecahydro-8H-7,10-methanocyclopropa[18,19][1,10,3,6]dioxadiazacyclononadecino[11,12-b]quinolin-8-yl]carbonyl}amino)cyclopropyl]carbonyl}[(1-methylcyclopropyl)sulfonyl]azanide] yielded a Ki [2, 4] of 0.009 nM, a Ki [2, 5] of 0.022 nM and a Ki [3] of 0.088 nM.

In the case of C=C[C@@H]1C[C@]1(NC(=O)[C@@H]1C[C@@H]2CN1C(=O)[C@H](C(C)C)NC(=O)O[C@@H]1C[C@H]1CCCCCc1c(nc3ccccc3c1OCCN1CCOCC1)O2)C(=O)NS(=O)(=O)C1(C)CC1 [Example 124, (1aR,5S,8S,10R,22aR)-N-[(1R,2S)-2-ethenyl-1-{[(1-methylcyclopropyl)sulfonyl]carbamoyl}cyclopropyl]-17-[2-(morpholin-4-yl)ethoxy]-3,6-dioxo-5-(propan-2-yl)-1,1a,3,4,5,6,9,10,18,19,20,21,22,22a-tetradeca hydro-8H-7,10-methano cyclopropa[18,19][1,10,3,6] dioxadiazacyclonona decino[11,12-b]quinoline-8-carboxamide], the Ki [2, 6] is reported as 0.79 nM and the Ki [3] is reported as 10 nM.

For C=C[C@@H]1CC1(NC(=O)[C@@H]1C[C@@H]2CN1C(=O)[C@H](C1CCCCC1)NC(=O)O[C@@H]1C[C@H]1CCCCCc1c(nc3ccccc3c1OC1CCN(CCOC(F)(F)F)CC1)O2)C(=O)NS(=O)(=O)C1(C)CC1 (stereo partly drawn) [Example 262, potassium {[(1R,2S)-1-({[(1aR,5S,8S,10R,22aR)-5-cyclohexyl-3,6-dioxo-17-({1-[2-(trifluoromethoxy)ethyl]piperidin-4-yl}oxy)-1,1a,3,4,5,6,9,10,18,19,20,21,22,22a-tetradecahydro-8H-7,10-methanocyclopropa[18,19][1,10,3,6]dioxadiazacyclononadecino[11,12-b]quinolin-8-yl]carbonyl}amino)-2-ethenylcyclopropyl]carbonyl}[(1-methylcyclopropyl)sulfonyl]azanide], the Ki [2, 4] was 0.018 nM, the Ki [2, 5] was 0.12 nM and the Ki [3] was 1.2 nM.

Molecule C=C[C@@H]1C[C@]1(NC(=O)[C@@H]1C[C@@H]2CN1C(=O)[C@H](C(C)(C)C)NC(=O)O[C@@H]1C[C@H]1CCCCCc1c(nc3ccccc3c1OC1C3COCC1CN(C(=O)OC(C)(C)C)C3)O2)C(=O)NS(=O)(=O)C1(C)CC1 (single isomer, unassigned) [Example 255] has a Ki [2, 4] of 0.12 nM, a Ki [2, 5] of 2.21 nM and a Ki [3] of 59.1 nM.

For CN1CCN(CCCOc2c3c(nc4ccccc24)O[C@@H]2C[C@H]4C(=O)N[C@]5(C(=O)NS(=O)(=O)C6(C)CC6)C[C@H]5/C=C\CCCCC[C@H](NC(=O)O[C@@H]5C[C@H]5CCC/C=C/3)C(=O)N4C2)CC1 [Example 304, (1aR,5S,11Z,12aS,13aR,16S,19R,27E, 31aR)-N-[(1-methylcyclopropyl)sulfonyl]-26-[3-(4-methylpiperazin-1-yl)propoxy]-3,15,33-trioxo-1,1a,3,4,5,6,7,8,9,10,12a,13,15,16,18, 19,29,30,31,31a-icosahydro-5,17:16,19-dimethanodicyclopropa[12,13:28,29] [1,20,3,14,17] dioxatriazacyclononacosino[21,22-b]quinoline-13a(14H)-carboxamide], the Ki [2, 6] was 0.078 nM and the Ki [3] was 1.2 nM.

Molecule COc1c2c(nc3ccccc13)O[C@@H]1C[C@H]3C(=O)N[C@]4(C(=O)NS(=O)(=O)C5(C)CC5)C[C@H]4/C=C\CCCCC[C@H](NC(=O)O[C@@H]4C[C@H]4CCCCC2)C(=O)N3C1 [Example 305, (1aR,5S,11Z,12aS,13aR,16S,19R,31aR)-26-methoxy-N-[(1-methylcyclopropyl)sulfonyl]-3,15,33-trioxo-1,1a,3,4,5,6,7,8,9,10,12a,13,15,16,18,19,27,28,29,30,31,31a-docosahydro-5,17:16,19-dimethanodicyclopropa[12,13:28,29][1,20,3,14,17]dioxatriazacyclononacosino[21,22-b]quinoline-13a(14H)-carboxamide] has a Ki [2, 6] of 0.066 nM and a Ki [3] of 2 nM.

With C=C[C@@H]1C[C@]1(NC(=O)[C@@H]1C[C@@H]2CN1C(=O)[C@H](C(C)(C)C)NC(=O)O[C@@H]1C[C@H]1CCCCCc1c(nc3ccccc3c1OC[C@H]1CNCCO1)O2)C(=O)NS(=O)(=O)C1(C)CC1 [Example 221, (1aR,5S,8S,10R,22aR)-5-tert-butyl-N-[(1R,2S)-2-ethenyl-1-{[(1-methylcyclopropyl)sulfonyl]carbamoyl}cyclopropyl]-17-[(2R)-morpholin-2-ylmethoxy]-3,6-dioxo-1,1a,3,4,5,6,9,10,18,19,20,21,22,22a-tetradecahydro-8H-7,10-methanocyclopropa[18,19][1,10,3,6]dioxadiazacyclononadecino[11,12-b]quinoline-8-carboxamide] the Ki [2, 6] was 0.05 nM and the Ki [3] was 1.4 nM.
